Read-outs that look alike come from different tables or passages of the source.
Details: amide bond, 16-membered ring, HBTU/HOBt/DIPEA, DMF, 25.0 °C

Q: Which ring closure, yield after HPLC (from H-dPhu-Leu-Ala-Val-isoAsp(OBn)-OH) does the source give for `Cc1ccccc1NC(=O)Nc1ccc(C[C@H]2NC(=O)C[C@@H](C(=O)OCc3ccccc3)NC(=O)[C@H](C(C)C)NC(=O)[C@H](C)NC(=O)[C@H](CC(C)C)NC2=O)cc1` [H-dPhu-Leu-Ala-Val-isoAsp(OBn)-OH] here?
A: 15%

Q: With `Cc1ccccc1NC(=O)Nc1ccc(C[C@@H]2NC(=O)C[C@@H](C(=O)OCc3ccccc3)NC(=O)[C@H](C(C)C)NC(=O)[C@H](C)NC(=O)[C@H](CC(C)C)NC2=O)cc1` [H-Phu-Leu-Ala-Val-isoAsp(OBn)-OH] as the compound, how does the ring closure, yield after HPLC (from H-Phu-Leu-Ala-Val-isoAsp(OBn)-OH) read?
A: 37%

Q: Which ring closure, yield after HPLC (from H-Phu-Leu-Asp(OBn)-Val-isoAsp(NHPr)-OH?) does the source give for `CCCNC(=O)[C@@H]1CC(=O)N[C@@H](Cc2ccc(NC(=O)Nc3ccccc3C)cc2)C(=O)N[C@@H](CC(C)C)C(=O)N[C@@H](CC(=O)OCc2ccccc2)C(=O)N[C@@H](C(C)C)C(=O)N1` [H-Phu-Leu-Asp(OBn)-Val-isoAsp(NHPr)-OH?] here?
A: 27%

Q: For `Cc1ccccc1NC(=O)Nc1ccc(C[C@H]2NC(=O)C[C@H](C(=O)OCc3ccccc3)NC(=O)[C@H](C(C)C)NC(=O)[C@H](CC(=O)OCc3ccccc3)NC(=O)[C@H](CC(C)C)NC2=O)cc1` [H-dPhu-Leu-Asp(OBn)-Val-disoAsp(OBn)-OH], which ring closure, yield after HPLC (from H-dPhu-Leu-Asp(OBn)-Val-disoAsp(OBn)-OH) is on record?
A: 34%

Q: With `Cc1ccccc1NC(=O)Nc1ccc(C[C@@H]2NC(=O)C[C@@H](C(=O)OCc3ccccc3)NC(=O)[C@H](C(C)C)NC(=O)[C@H](CC(=O)OCc3ccccc3)NC(=O)[C@H](Cc3ccccc3)NC2=O)cc1` [H-Phu-Phe-Asp(OBn)-Val-isoAsp(OBn)-OH] as the compound, how does the ring closure, yield after HPLC (from H-Phu-Phe-Asp(OBn)-Val-isoAsp(OBn)-OH) read?
A: 25%

Q: With `Cc1ccccc1NC(=O)Nc1ccc(C[C@@H]2NC(=O)C[C@H](C(=O)OCc3ccccc3)NC(=O)[C@H](C(C)C)NC(=O)[C@H](CC(=O)OCc3ccccc3)NC(=O)[C@H](CC(C)C)NC2=O)cc1` [H-Phu-Leu-Asp(OBn)-Val-disoAsp(OBn)-OH] as the compound, how does the ring closure, yield after HPLC (from H-Phu-Leu-Asp(OBn)-Val-disoAsp(OBn)-OH) read?
A: 19%

Q: Which ring closure, yield after HPLC (from H-Phu-Phe-Ala-Val-isoAsp(OBn)-OH) does the source give for `Cc1ccccc1NC(=O)Nc1ccc(C[C@@H]2NC(=O)C[C@@H](C(=O)OCc3ccccc3)NC(=O)[C@H](C(C)C)NC(=O)[C@H](C)NC(=O)[C@H](Cc3ccccc3)NC2=O)cc1` [H-Phu-Phe-Ala-Val-isoAsp(OBn)-OH] here?
A: 48%

Q: For `Cc1ccccc1NC(=O)Nc1ccc(C[C@H]2NC(=O)C[C@@H](C(=O)OCc3ccccc3)NC(=O)[C@H](c3ccccc3)NC(=O)[C@H](CC(=O)OCc3ccccc3)NC(=O)[C@H](CC(C)C)NC2=O)cc1` [H-dPhu-Leu-Asp(OBn)-Phg-isoAsp(OBn)-OH?], which ring closure, yield after HPLC (from H-dPhu-Leu-Asp(OBn)-Phg-isoAsp(OBn)-OH?) is on record?
A: 43%

Q: For `Cc1ccccc1NC(=O)Nc1ccc(C[C@@H]2NC(=O)C[C@@H](C(=O)OCc3ccccc3)NC(=O)[C@H](C(C)C)NC(=O)[C@H](CC(=O)OCc3ccccc3)NC(=O)[C@H](CC(C)C)NC2=O)cc1` [H-Phu-Leu-Asp(OBn)-Val-isoAsp(OBn)-OH], which ring closure, yield after HPLC (from H-Phu-Leu-Asp(OBn)-Val-isoAsp(OBn)-OH) is on record?
A: 28%

Q: With `Cc1ccccc1NC(=O)Nc1ccc(C[C@H]2NC(=O)C[C@@H](C(=O)OCc3ccccc3)NC(=O)[C@H](C(C)C)NC(=O)[C@H](CC(=O)OCc3ccccc3)NC(=O)[C@H](CC(C)C)NC2=O)cc1` [H-dPhu-Leu-Asp(OBn)-Val-isoAsp(OBn)-OH] as the compound, how does the ring closure, yield after HPLC (from H-dPhu-Leu-Asp(OBn)-Val-isoAsp(OBn)-OH) read?
A: 29%

Q: With `Cc1ccccc1NC(=O)Nc1ccc(C[C@@H]2NC(=O)C[C@@H](C(=O)OCc3ccccc3)NC(=O)[C@H](C(C)C)NC(=O)[C@H](CC(=O)OCc3ccccc3)NC(=O)[C@H](CC(C)C)NC2=O)cc1` [H-isoAsp(OBn)-Phu-Leu-Asp(OBn)-Val-OH] as the compound, how does the ring closure, yield after HPLC (from H-isoAsp(OBn)-Phu-Leu-Asp(OBn)-Val-OH) read?
A: 0%

Q: With `Cc1ccccc1NC(=O)Nc1ccc(C[C@@H]2NC(=O)C[C@@H](C(=O)OCc3ccccc3)NC(=O)[C@H](C(C)C)NC(=O)[C@H](CC(=O)OCc3ccccc3)NC(=O)[C@H](CC(C)C)NC2=O)cc1` [H-Asp(OBn)-Val-isoAsp(OBn)-Phu-Leu-OH?] as the compound, how does the ring closure, yield after HPLC (from H-Asp(OBn)-Val-isoAsp(OBn)-Phu-Leu-OH?) read?
A: 0%

Q: Which ring closure, yield after HPLC (from H-Phu-Leu-Asp(OBn)-Val-(R)-β3homoAla-OH) does the source give for `Cc1ccccc1NC(=O)Nc1ccc(C[C@@H]2NC(=O)C[C@@H](C)NC(=O)[C@H](C(C)C)NC(=O)[C@H](CC(=O)OCc3ccccc3)NC(=O)[C@H](CC(C)C)NC2=O)cc1` [H-Phu-Leu-Asp(OBn)-Val-(R)-β3homoAla-OH] here?
A: 50%
